Tested on: Caco-2 monolayer permeability, A-to-B, LC-MS/MS
Assay: Inhibitors of HPGD: Caco-2 Cell Permeability Profiling
Conditions: active compounds read high
Excerpt: Human 15-Hydroxyprostaglandin dehydrogenase (HPGD) catalyzes the inactivation of prostaglandin E2, and plays a major role in cancer biology by antagonizing the oncogenic potential of cyclooxygenase type 2 (COX2). Assays are available, based on absorbance/fluorescence increase of NADH with the substrate 15-OH prostaglandin E2. This bioassays provides profiling data on Caco-2 cell permeability of leads compounds developed for the HPGD project. This in vitro model is often predictive of in vivo absorption of the compound across the intestinal lining by using a Caco2-cell line and measuring the compound's rate of transport […]. NIH Chemical Genomics Center [NCGC] Structural Genomics Consortium [SGC]
1. Buffer Preparation: Prepare 1M HEPES: add 23.83g HEPES to 100ml of 0.85% NaCl Prepare HBSS+ buffer: add 12.8ml of 1M HEPES in 0.85% NaCl to 500ml HBSS buffer. 2. Take out the compounds from -80 degrees C, ultrasonicate or pre-warm for a few minutes to thaw the compounds. 3. […] The T0, LY and T90, LY plates are read by FlexStation 3 at excitation of 485 nm and emission of 535 nm to determine LY permeability. […]

| SMILES | permeability Papp |
| --- | --- |
| Cc1cccc(-n2cnc3cc(C(=O)N4CCCCC4)ccc32)c1 | 15 10^-6 cm/s |
| Cc1cc(-c2nnc3n2CCCCC3)c(C)n1-c1ccccc1 | 21 10^-6 cm/s |

Source: PubChem BioAssay AID504629 (National Center for Advancing Translational Sciences (NCATS), 2011)
